# Laboratory results reported in patent publication US6339042B1, “Herbicidal N-cyclohexadienyl heteroaryloxyacetamides” (American Cyanamid Co., priority 1999, dated 2002).
# Tests used:
# Settings in all cases: three weeks after treatment
# Amaranthus tuberculatus [1] = test: Pre-emergence herbicidal evaluation, AMATA; assay type: in vivo
# Source text: (§1) The treated pots are then placed on greenhouse benches, watered and cared for in accordance with conventional greenhouse procedures.
# Galium aparine [2] = test: Pre-emergence herbicidal evaluation, GALAP; assay type: in vivo
# Source text: as §1
# Alopecurus myosuroides [3] = test: Pre-emergence herbicidal evaluation, ALOMY; assay type: in vivo
# Source text: as §1
# Apera spica venti [4] = test: Pre-emergence herbicidal evaluation, APESV; assay type: in vivo
# Source text: as §1
# Echinochloa crus-galli [5] = test: Pre-emergence herbicidal evaluation, ECHCG; assay type: in vivo
# Source text: as §1
# Setaria viridis [6] = test: Pre-emergence herbicidal evaluation, SETVI; assay type: in vivo
# Source text: as §1
# Lolium perenne [7] = test: Pre-emergence herbicidal evaluation, LOLPE; assay type: in vivo
# Source text: as §1
# Triticum aestivum [8] = test: Pre-emergence herbicidal evaluation, TRZAW; assay type: in vivo
# Source text: as §1
# Hordeum vulgare [9] = test: Pre-emergence herbicidal evaluation, HORVW; assay type: in vivo
# Source text: as §1
# Zea mays [10] = test: Pre-emergence herbicidal evaluation, ZEAMX; assay type: in vivo
# Source text: as §1
# Glycine max [11] = test: Pre-emergence herbicidal evaluation, GLXMA; assay type: in vivo
# Source text: as §1
# Oryza sativum [12] = test: Pre-emergence herbicidal evaluation, ORYSA; assay type: in vivo
# Source text: as §1
# Amaranthus tuberculatus [13] = test: Post-emergence herbicidal evaluation, AMATA; assay type: in vivo
# Galium aparine [14] = test: Post-emergence herbicidal evaluation, GALAP
# Alopecurus myosuroides [15] = test: Post-emergence herbicidal evaluation, ALOMY
# Experimental: (§2) The compounds of the invention are tested for pre- and post-emergence herbicidal activity.
# (§3) Each pot is examined three weeks after treatment and phytotoxicity is assessed according to the rating system set forth below.
# (§4) These acetone solutions are diluted with water and the resulting formulations applied at dosage levels equivalent of about 0.4 to 0.1 kg per hectare of test compound per pot. After spraying the plants are placed on greenhouse benches and are cared for in the usual manner, commensurate with conventional greenhouse practices.
# Apera spica venti [16] = test: Post-emergence herbicidal evaluation, APESV
# Experimental: as §2, §3, §4
# Echinochloa crus-galli [17] = test: Post-emergence herbicidal evaluation, ECHCG
# Setaria viridis [18] = test: Post-emergence herbicidal evaluation, SETVI
# Lolium perenne [19] = test: Post-emergence herbicidal evaluation, LOLPE
# Triticum aestivum [20] = test: Post-emergence herbicidal evaluation, TRZAW
# Hordeum vulgare [21] = test: Post-emergence herbicidal evaluation, HORVW
# Zea mays [22] = test: Post-emergence herbicidal evaluation, ZEAMX
# Glycine max [23] = test: Post-emergence herbicidal evaluation, GLXMA
# Oryza sativum [24] = test: Post-emergence herbicidal evaluation, ORYSA
smiles,measurement,setting,value
CC1=CC(N(C(=O)COc2nnc(C(F)(F)F)s2)C(C)C)=CC(C)(C)C1 [Example 4],phytotoxicity rating AMATA,Amaranthus tuberculatus [1]; 0.100 kg/ha,6 (6 - Herbicidal effect)
same,phytotoxicity rating AMATA,Amaranthus tuberculatus [1]; 0.200 kg/ha,6 (6 - Herbicidal effect)
same,phytotoxicity rating AMATA,Amaranthus tuberculatus [1]; 0.400 kg/ha,8 (8 - Approaching complete kill)
same,phytotoxicity rating AMATA,Amaranthus tuberculatus [1]; 0.800 kg/ha,8 (8 - Approaching complete kill)
same,phytotoxicity rating GALAP,Galium aparine [2]; 0.100 kg/ha,0 (0 - No effect)
same,phytotoxicity rating GALAP,Galium aparine [2]; 0.200 kg/ha,0 (0 - No effect)
same,phytotoxicity rating GALAP,Galium aparine [2]; 0.400 kg/ha,2 (2 - Slight effect)
same,phytotoxicity rating GALAP,Galium aparine [2]; 0.800 kg/ha,3 (3 - Moderate effect)
same,phytotoxicity rating ALOMY,Alopecurus myosuroides [3]; 0.100 kg/ha,7 (7 - Good herbicidal effect)
same,phytotoxicity rating ALOMY,Alopecurus myosuroides [3]; 0.200 kg/ha,7 (7 - Good herbicidal effect)
same,phytotoxicity rating ALOMY,Alopecurus myosuroides [3]; 0.400 kg/ha,7 (7 - Good herbicidal effect)
same,phytotoxicity rating ALOMY,Alopecurus myosuroides [3]; 0.800 kg/ha,9 (9 - Complete kill)
same,phytotoxicity rating APESV,Apera spica venti [4]; 0.100 kg/ha,9 (9 - Complete kill)
same,phytotoxicity rating APESV,Apera spica venti [4]; 0.200 kg/ha,9 (9 - Complete kill)
same,phytotoxicity rating APESV,Apera spica venti [4]; 0.400 kg/ha,9 (9 - Complete kill)
same,phytotoxicity rating APESV,Apera spica venti [4]; 0.800 kg/ha,9 (9 - Complete kill)
same,phytotoxicity rating ECHCG,Echinochloa crus-galli [5]; 0.100 kg/ha,6 (6 - Herbicidal effect)
same,phytotoxicity rating ECHCG,Echinochloa crus-galli [5]; 0.200 kg/ha,9 (9 - Complete kill)
same,phytotoxicity rating ECHCG,Echinochloa crus-galli [5]; 0.400 kg/ha,9 (9 - Complete kill)
same,phytotoxicity rating ECHCG,Echinochloa crus-galli [5]; 0.800 kg/ha,9 (9 - Complete kill)
same,phytotoxicity rating SETVI,Setaria viridis [6]; 0.100 kg/ha,6 (6 - Herbicidal effect)
same,phytotoxicity rating SETVI,Setaria viridis [6]; 0.200 kg/ha,6 (6 - Herbicidal effect)
same,phytotoxicity rating SETVI,Setaria viridis [6]; 0.400 kg/ha,6 (6 - Herbicidal effect)
same,phytotoxicity rating SETVI,Setaria viridis [6]; 0.800 kg/ha,9 (9 - Complete kill)
same,phytotoxicity rating LOLPE,Lolium perenne [7]; 0.100 kg/ha,8 (8 - Approaching complete kill)
same,phytotoxicity rating LOLPE,Lolium perenne [7]; 0.200 kg/ha,9 (9 - Complete kill)
same,phytotoxicity rating LOLPE,Lolium perenne [7]; 0.400 kg/ha,9 (9 - Complete kill)
same,phytotoxicity rating LOLPE,Lolium perenne [7]; 0.800 kg/ha,9 (9 - Complete kill)
same,phytotoxicity rating TRZAW,Triticum aestivum [8]; 0.100 kg/ha,0 (0 - No effect)
same,phytotoxicity rating TRZAW,Triticum aestivum [8]; 0.200 kg/ha,0 (0 - No effect)
same,phytotoxicity rating TRZAW,Triticum aestivum [8]; 0.400 kg/ha,1 (1 - Trace effect)
same,phytotoxicity rating TRZAW,Triticum aestivum [8]; 0.800 kg/ha,4 (4 - Injury)
same,phytotoxicity rating HORVW,Hordeum vulgare [9]; 0.100 kg/ha,0 (0 - No effect)
same,phytotoxicity rating HORVW,Hordeum vulgare [9]; 0.200 kg/ha,0 (0 - No effect)
same,phytotoxicity rating HORVW,Hordeum vulgare [9]; 0.400 kg/ha,1 (1 - Trace effect)
same,phytotoxicity rating HORVW,Hordeum vulgare [9]; 0.800 kg/ha,4 (4 - Injury)
same,phytotoxicity rating ZEAMX,Zea mays [10]; 0.100 kg/ha,0 (0 - No effect)
same,phytotoxicity rating ZEAMX,Zea mays [10]; 0.200 kg/ha,1 (1 - Trace effect)
same,phytotoxicity rating ZEAMX,Zea mays [10]; 0.400 kg/ha,1 (1 - Trace effect)
same,phytotoxicity rating ZEAMX,Zea mays [10]; 0.800 kg/ha,4 (4 - Injury)
same,phytotoxicity rating GLXMA,Glycine max [11]; 0.100 kg/ha,0 (0 - No effect)
same,phytotoxicity rating GLXMA,Glycine max [11]; 0.200 kg/ha,0 (0 - No effect)
same,phytotoxicity rating GLXMA,Glycine max [11]; 0.400 kg/ha,0 (0 - No effect)
same,phytotoxicity rating GLXMA,Glycine max [11]; 0.800 kg/ha,1 (1 - Trace effect)
same,phytotoxicity rating ORYSA,Oryza sativum [12]; 0.100 kg/ha,3 (3 - Moderate effect)
same,phytotoxicity rating ORYSA,Oryza sativum [12]; 0.200 kg/ha,4 (4 - Injury)
same,phytotoxicity rating ORYSA,Oryza sativum [12]; 0.400 kg/ha,5 (5 - Definite injury)
same,phytotoxicity rating ORYSA,Oryza sativum [12]; 0.800 kg/ha,5 (5 - Definite injury)
same,phytotoxicity rating AMATA,Amaranthus tuberculatus [13]; 0.100 kg/ha,1 (1 - Trace effect)
same,phytotoxicity rating AMATA,Amaranthus tuberculatus [13]; 0.200 kg/ha,1 (1 - Trace effect)
same,phytotoxicity rating AMATA,Amaranthus tuberculatus [13]; 0.400 kg/ha,4 (4 - Injury)
same,phytotoxicity rating GALAP,Galium aparine [14]; 0.100 kg/ha,0 (0 - No effect)
same,phytotoxicity rating GALAP,Galium aparine [14]; 0.200 kg/ha,0 (0 - No effect)
same,phytotoxicity rating GALAP,Galium aparine [14]; 0.400 kg/ha,2 (2 - Slight effect)
same,phytotoxicity rating ALOMY,Alopecurus myosuroides [15]; 0.100 kg/ha,4 (4 - Injury)
same,phytotoxicity rating ALOMY,Alopecurus myosuroides [15]; 0.200 kg/ha,8 (8 - Approaching complete kill)
same,phytotoxicity rating ALOMY,Alopecurus myosuroides [15]; 0.400 kg/ha,8 (8 - Approaching complete kill)
same,phytotoxicity rating APESV,Apera spica venti [16]; 0.100 kg/ha,2 (2 - Slight effect)
same,phytotoxicity rating APESV,Apera spica venti [16]; 0.200 kg/ha,8 (8 - Approaching complete kill)
same,phytotoxicity rating APESV,Apera spica venti [16]; 0.400 kg/ha,8 (8 - Approaching complete kill)
same,phytotoxicity rating ECHCG,Echinochloa crus-galli [17]; 0.100 kg/ha,3 (3 - Moderate effect)
same,phytotoxicity rating ECHCG,Echinochloa crus-galli [17]; 0.200 kg/ha,6 (6 - Herbicidal effect)
same,phytotoxicity rating ECHCG,Echinochloa crus-galli [17]; 0.400 kg/ha,6 (6 - Herbicidal effect)
same,phytotoxicity rating SETVI,Setaria viridis [18]; 0.100 kg/ha,3 (3 - Moderate effect)
same,phytotoxicity rating SETVI,Setaria viridis [18]; 0.200 kg/ha,5 (5 - Definite injury)
same,phytotoxicity rating SETVI,Setaria viridis [18]; 0.400 kg/ha,5 (5 - Definite injury)
same,phytotoxicity rating LOLPE,Lolium perenne [19]; 0.100 kg/ha,5 (5 - Definite injury)
same,phytotoxicity rating LOLPE,Lolium perenne [19]; 0.200 kg/ha,7 (7 - Good herbicidal effect)
same,phytotoxicity rating LOLPE,Lolium perenne [19]; 0.400 kg/ha,8 (8 - Approaching complete kill)
same,phytotoxicity rating TRZAW,Triticum aestivum [20]; 0.100 kg/ha,0 (0 - No effect)
same,phytotoxicity rating TRZAW,Triticum aestivum [20]; 0.200 kg/ha,1 (1 - Trace effect)
same,phytotoxicity rating TRZAW,Triticum aestivum [20]; 0.400 kg/ha,3 (3 - Moderate effect)
same,phytotoxicity rating HORVW,Hordeum vulgare [21]; 0.100 kg/ha,0 (0 - No effect)
same,phytotoxicity rating HORVW,Hordeum vulgare [21]; 0.200 kg/ha,1 (1 - Trace effect)
same,phytotoxicity rating HORVW,Hordeum vulgare [21]; 0.400 kg/ha,2 (2 - Slight effect)
same,phytotoxicity rating ZEAMX,Zea mays [22]; 0.100 kg/ha,0 (0 - No effect)
same,phytotoxicity rating ZEAMX,Zea mays [22]; 0.200 kg/ha,0 (0 - No effect)
same,phytotoxicity rating ZEAMX,Zea mays [22]; 0.400 kg/ha,0 (0 - No effect)
same,phytotoxicity rating GLXMA,Glycine max [23]; 0.100 kg/ha,2 (2 - Slight effect)
same,phytotoxicity rating GLXMA,Glycine max [23]; 0.200 kg/ha,4 (4 - Injury)
same,phytotoxicity rating GLXMA,Glycine max [23]; 0.400 kg/ha,6 (6 - Herbicidal effect)
same,phytotoxicity rating ORYSA,Oryza sativum [24]; 0.100 kg/ha,0 (0 - No effect)
same,phytotoxicity rating ORYSA,Oryza sativum [24]; 0.200 kg/ha,1 (1 - Trace effect)
same,phytotoxicity rating ORYSA,Oryza sativum [24]; 0.400 kg/ha,1 (1 - Trace effect)
